Data as given in patent US20200253506A1, “TREATMENT OF A DISEASE OF THE GASTROINTESTINAL TRACT WITH AN INTEGRIN INHIBITOR” (Progenity, Inc., priority 2016, published 2020).

Experiment: Tacrolimus tissue, plasma and GI content pharmacokinetics, oral vs intra-cecal ingestible device delivery
Assay type: in vivo
Settings: swine; intra-cecal compared to oral; 12 hours post-dose; FIG. 76
Procedure: No further randomization procedure was employed.
Animals in Group 1 received an ingestible device containing 0.8 mL of vehicle solution (80% alcohol, 20% HCO-60). Animals in Group 2 received orally […] liquid formulation of tacrolimus at 4 mg/0.8 mL per animal (Prograf: 5 mg/mL). Animals in Group 3 received intra-cecally an ingestible device containing tacrolimus at 1 mg in 0.8 mL per ingestible device. Animals in Group 4 received intra-cecally an ingestible device containing tacrolimus at 2 mg in 0.8 mL per ingestible device. Animals in Group 5 received intra-cecally an ingestible device containing tacrolimus at 4 mg in 0.8 mL per ingestible device. […]
Approximately 200-400 mg of rectal content were collected, if available, with a fecal swab (Copan Diagnostics Nylon Flocked Dry Swabs, 502CS01). The fecal swab was pre-weighed and weighed after collection in the collection tube (Sterile Tube and Cap No Media, PFPM913S), and the sample weight was recorded. […]
For tissue necropsy, small intestine fluid and cecal fluid were collected separately from all the animals into two separate square plastic bottles, and stored at −20° C. The length and diameter of the cecum and the colon was measured from one animal in each group and recorded for reference. […] All samples were weighed, and the tissue sample weights were recorded. […]

mean concentration of tacrolimus in the cecum tissue and the proximate colon tissue: higher
SMILES: C=CC[C@@H]1/C=C(\C)C[C@H](C)C[C@H](OC)[C@H]2O[C@@](O)(C(=O)C(=O)N3CCCC[C@H]3C(=O)O[C@H](/C(C)=C/[C@@H]3CC[C@@H](O)[C@H](OC)C3)[C@H](C)[C@@H](O)CC1=O)[C@H](C)C[C@@H]2OC [tacrolimus]
